Our source for the IC50 values is US20250179073A1, “TRICYCLIC HETEROCYCLE COMPOUNDS AS IAP ANTAGONISTS” (Ascentage Pharma (Suzhou) Co., Ltd., priority 2022, published 2025).

In assay [1] the test system is MDA-MB-231 cells. Description: Cell proliferation assay (CellTiter-Glo), MDA-MB-231. The assay is classed as cell-based. To be noted: Homo sapiens, MDA-MB-231, 72 h, 72 h treatment, Celltiter-Glo luminescence. A digest of the protocol:
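MDA-MB-231 (RPMI-1640/10% FBS) and EVSA-T (MEM/10% FBS) cells, 10000 cells/well, exposed 72 h to compound at […]. Viability read by CellTiter-Glo luminescence after 15 min at room temperature. IC50 from control-normalised curve fitting.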
A general note: In ATP-based viability assays light output follows the ATP content of the culture.

The test system of assay [2] is EVSA-T cells. Kind of assay: Cell proliferation assay (CellTiter-Glo), EVSA-T. The format is cell-based. The settings on record: Homo sapiens, EVSA-T, 72 h, 72 h treatment, Celltiter-Glo luminescence. The procedure:
Example 238: Cell Proliferation Assay
MDA-MB-231 and EVSA-T cells (10000 cells/well) were plated onto 96-well plates (Corning, Cat #3917) in 95 μL of medium (RPMI-1640 containing 10% FBS and MEM containing 10% FBS, respectively). Compounds with various concentrations ([…]) were added to the wells. After treatment for 72 h, 30 μL of Celltiter-Glo reagent (Promega, Cat #G7573) was added and incubated at room temperature for 15 min, then the luminescent signal was determined using a microplate reader (Biotek, SynergyH1). The inhibitor dose-response curves were analyzed using normalized IC50 regression curve fitting with control based normalization.

A word on the IC50: it is the concentration at which inhibition is half-maximal. Take `C[C@@H]1CN(CC(=O)N2CC(C)(C)c3c2cc(Cc2ccc(F)cc2)c2ncnn32)[C@@H](CN2Cc3ncccc3C2=O)CN1` [Compound 95, 6-(((2R,5R)-1-(2-(4-(4-fluorobenzyl)-8,8-dimethyl-7,8-dihydro-6H-pyrrolo[2,3-e][1,2,4]triazolo[1,5-a]pyridin-6-yl)-2-oxoethyl)-5-methylpiperazin-2-yl)methyl)-6,7-dihydro-5H-pyrrolo[3,4-b]pyridin-5-one]: the IC50 in assay [1] was 12 nM; in assay [2] it was 0.4 nM.
For `C[C@@H]1CN(CC(=O)N2CC(C)(C)c3c2cc(Cc2ccc(F)cc2)c2ncnn32)[C@@H](CN2Cc3cnccc3C2=O)CN1` [Compound 96, 2-(((2R,5R)-1-(2-(4-(4-fluorobenzyl)-8,8-dimethyl-7,8-dihydro-6H-pyrrolo[2,3-e][1,2,4]triazolo[1,5-a]pyridin-6-yl)-2-oxoethyl)-5-methylpiperazin-2-yl)methyl)-2,3-dihydro-1H-pyrrolo[3,4-c]pyridin-1-one] the same measures were 52 nM and 5 nM.
On the same counts, the results for `C[C@@H]1CN(CC(=O)N2CC(C)(C)c3c2cc(Cc2ccc(F)cc2)c2ncnn32)[C@@H](CN2Cc3ccncc3C2=O)CN1` [Compound 97, 2-(((2R,5R)-1-(2-(4-(4-fluorobenzyl)-8,8-dimethyl-7,8-dihydro-6H-pyrrolo[2,3-e][1,2,4]triazolo[1,5-a]pyridin-6-yl)-2-oxoethyl)-5-methylpiperazin-2-yl)methyl)-1,2-dihydro-3H-pyrrolo[3,4-c]pyridin-3-one] are 47 nM and 3 nM.
Turning to `C[C@@H]1CN(CC(=O)N2CC(C)(C)c3c2cc(Cc2ccc(F)cc2)c2ncnn32)[C@@H](CN2Cc3cccnc3C2=O)CN1` [Compound 98, 6-(((2R,5R)-1-(2-(4-(4-fluorobenzyl)-8,8-dimethyl-7,8-dihydro-6H-pyrrolo[2,3-e][1,2,4]triazolo[1,5-a]pyridin-6-yl)-2-oxoethyl)-5-methylpiperazin-2-yl)methyl)-5,6-dihydro-7H-pyrrolo[3,4-b]pyridin-7-one], the IC50 in assay [1] was found to be 72 nM; in assay [2] it was 8 nM.
On the same counts, the results for `C[C@@H]1CN(CC(=O)N2CC(C)(C)c3c2cc(Cc2ccc(F)cc2)c2ncnn32)[C@@H](CN2Cc3c(F)cccc3C2=O)CN1` [Compound 99, 4-fluoro-2-(((2R,5R)-1-(2-(4-(4-fluorobenzyl)-8,8-dimethyl-7,8-dihydro-6H-pyrrolo[2,3-e][1,2,4]triazolo[1,5-a]pyridin-6-yl)-2-oxoethyl)-5-methylpiperazin-2-yl)methyl)isoindolin-1-one] are 12 nM and 5 nM.
On the same counts, the results for `C[C@@H]1CN(CC(=O)N2CC(C)(C)c3c2cc(Cc2ccc(F)cc2)c2ncnn32)[C@@H](CN2Cc3cc(F)ccc3C2=O)CN1` [Compound 100, 5-fluoro-2-(((2R,5R)-1-(2-(4-(4-fluorobenzyl)-8,8-dimethyl-7,8-dihydro-6H-pyrrolo[2,3-e][1,2,4]triazolo[1,5-a]pyridin-6-yl)-2-oxoethyl)-5-methylpiperazin-2-yl)methyl)isoindolin-1-one] are 21 nM and 4 nM.
Consider `C[C@@H]1CN(CC(=O)N2CC(C)(C)c3c2cc(Cc2ccc(F)cc2)c2ncnn32)[C@@H](CN2Cc3ccc(F)cc3C2=O)CN1` [Compound 101, 6-fluoro-2-(((2R,5R)-1-(2-(4-(4-fluorobenzyl)-8,8-dimethyl-7,8-dihydro-6H-pyrrolo[2,3-e][1,2,4]triazolo[1,5-a]pyridin-6-yl)-2-oxoethyl)-5-methylpiperazin-2-yl)methyl)isoindolin-1-one], for which the IC50 is 23 nM in assay [1] and 8 nM in assay [2].
For `C[C@@H]1CN(CC(=O)N2CC(C)(C)c3c2cc(Cc2ccc(F)cc2)c2c(C#N)cnn32)[C@@H](CN2CCOC[C@H]2C)CN1` [Compound 105, 4-(4-fluorobenzyl)-8,8-dimethyl-6-(2-((2R,5R)-5-methyl-2-(((R)-3-methylmorpholino)methyl)piperazin-1-yl)acetyl)-7,8-dihydro-6H-pyrazolo[1,5-a]pyrrolo[2,3-e]pyridine-3-carbonitrile] the same measures were 100 nM and 9 nM.
For `Cc1nc2c(Cc3ccc(F)cc3)cc3c(n2c1C)C(C)(C)CN3C(=O)CN1C[C@@H](C)NC[C@@H]1CN1CCOC[C@H]1C` [Compound 109, 1-(4-(4-fluorobenzyl)-1,2,8,8-tetramethyl-7,8-dihydro-6H-imidazo[1,2-a]pyrrolo[2,3-e]pyridin-6-yl)-2-((2R,5R)-5-methyl-2-(((R)-3-methylmorpholino)methyl)piperazin-1-yl)ethan-1-one] the same measures were 61 nM and 9 nM.
For `C[C@@H]1CN(CC(=O)N2CC(C)(C)c3c2cc(Cc2ccc(F)cc2)c2ncc(C#N)n32)[C@@H](CN2CCOC[C@H]2C)CN1` [Compound 111, 4-(4-fluorobenzyl)-8,8-dimethyl-6-(2-((2R,5R)-5-methyl-2-(((R)-3-methylmorpholino)methyl)piperazin-1-yl)acetyl)-7,8-dihydro-6H-imidazo[1,2-a]pyrrolo[2,3-e]pyridine-1-carbonitrile] the same measures were 42 nM and 2 nM.
Regarding `C[C@@H]1CN(CC(=O)N2CC(C)(C)c3c2cc(Cc2ccc(F)cc2)c2nc(Cl)cn32)[C@@H](CN2CCOC[C@H]2C)CN1` [Compound 113, 1-(2-chloro-4-(4-fluorobenzyl)-8,8-dimethyl-7,8-dihydro-6H-imidazo[1,2-a]pyrrolo[2,3-e]pyridin-6-yl)-2-((2R,5R)-5-methyl-2-(((R)-3-methylmorpholino)methyl)piperazin-1-yl)ethan-1-one], the IC50 stood at 74 nM in assay [1] and 6 nM in assay [2].
On the same counts, the results for `Cc1cc(F)ccc1Cc1cc2c(n3ncnc13)C(C)(C)CN2C(=O)CN1C[C@@H](C)NC[C@@H]1CN1CCOC[C@H]1C` [Compound 115, 1-(4-(4-fluoro-2-methylbenzyl)-8,8-dimethyl-7,8-dihydro-6H-pyrrolo[2,3-e][1,2,4]triazolo[1,5-a]pyridin-6-yl)-2-((2R,5R)-5-methyl-2-(((R)-3-methylmorpholino)methyl)piperazin-1-yl)ethan-1-one] are 160 nM and 30 nM.
On the same counts, the results for `C[C@@H]1CN(CC(=O)N2CC(C)(C)c3c2cc(Cc2ccc(F)cc2)c2nc(C(F)(F)F)cn32)[C@@H](CN2CCOC[C@H]2C)CN1` [Compound 116, 1-(4-(4-fluorobenzyl)-8,8-dimethyl-2-(trifluoromethyl)-7,8-dihydro-6H-imidazo[1,2-a]pyrrolo[2,3-e]pyridin-6-yl)-2-((2R,5R)-5-methyl-2-(((R)-3-methylmorpholino)methyl)piperazin-1-yl)ethan-1-one] are 93 nM and 19 nM.
On the same counts, the results for `C[C@@H]1CN(CC(=O)N2CC(C)(C)c3c2cc(Cc2ccc(F)cc2)c2ncc(Cl)n32)[C@@H](CN2CCOC[C@H]2C)CN1` [Compound 118, 1-(1-chloro-4-(4-fluorobenzyl)-8,8-dimethyl-7,8-dihydro-6H-imidazo[1,2-a]pyrrolo[2,3-e]pyridin-6-yl)-2-((2R,5R)-5-methyl-2-(((R)-3-methylmorpholino)methyl)piperazin-1-yl)ethan-1-one] are 120 nM and 10 nM.
